# Data as given in patent US20250152688A1 (priority 2021, published 2025).
# “Also recorded” adds a separate entry of the source. Like-named read-outs stand apart in the source and are kept apart here.
# Experiments:
# [1] = test system: peripheral blood mononuclear cells (PMBCs); type: cell-based, human; settings: for Total of positive patients over peptides sharing at least 8 amino acids with the polypeptide: GV1001 (n=4) + DC (n=3) vaccinated patients
# [2] = test system: HLA-A2/DR1 transgenic mice; type: in vivo; settings: for Immunogenicity in HLA-A2/DR1 transgenic mice (conclusion): 16.4 nmol peptide with standard adjuvant; for Peptides above the threshold (T cell responses against individual peptides): 16.4 nmol peptide, female HLA-A2/DR1 mice (n=4), cut off = cells alone; for Peptide recognition by individual vaccinated mice (ELISpot): 16.4 nmol, mice M9-M12 GV1001 group, M13-M16 UV34 group
# vaccinated individuals = settings: reported in Bernhardt 2006, Inderberg-Suso 2012, Kyte 2011; cited from earlier work
# [3] = test system: peripheral blood mononuclear cells (PBMCs); type: in vivo, human; settings: for Patients with immune response against the peptide / UV1 mix: 51 evaluable patients vaccinated with UV1 (NSCLC, prostate cancer, malignant melanoma); for Number of patients that recognised this one peptide only / Responding patients / evaluable patients: patients vaccinated with UV1; for Responding patients / evaluable patients: response against the labelled peptide / mix
# [4] = test system: T-cell clones derived from patients that responded to UV1 vaccination; type: cell-based, human; settings: T-cell clones from UV1 responders tested with overlapping 14-mer peptides
# [5] = test system: transgenic HLA-A2/HLA-DR1 animals; type: in vivo, mice; settings: Group 1: MTTE-OVA then CD29 60 μg (4.1 nmol); Group 2: UV34 14 μg (4.1 nmol) in IFA; prime-boost-boost; p=0.0286
# [6] = test system: B6.129S2-H2-Ab1tm1GruTg(HLADRA/H2-Ea,HLA-DRB1*0401/H2-Eb)1Kito strain mice; type: in vivo; settings: HLA-DR4 mice
# [7] = test system: J76 cells transfected with UT1, a TCR specific for SEQ ID NO: 1; type: cell-based, human; settings: 0.5, 1.5 and 5 μM (conjugates in second experiment 0.5, 1.5 and 3 μM); 24 hours; EBV cells as APC
# C57BL/6 mice = type: in vivo; settings: 1 nmol SC 3 times, 1 week intervals, blood 9 days post last administration
# [8] = Vaccination GV1001 + DC (n = 4 + 3)
substance,measurement,setting,value
LKRVQLRELSEAEVRQ [Conjugate 731],No. of positive patients,[1],1
same,"T-cell responses to the individual peptide (patients), counted for SEQ ID NO: 116",[1]; Vaccination GV1001 (n = 4),1
same,"T-cell responses to the individual peptide (patients), counted for SEQ ID NO: 116",[1]; [8],1
"EARPALLTSRLRFIPK [GV1001, reference compound]",SUM of T-cell responses to peptides embedded in the polypeptide,[1]; Vaccination DC (n = 3),5
same,SUM of T-cell responses to peptides embedded in the polypeptide,[1]; Vaccination GV1001 (n = 4),7
same,SUM of T-cell responses to peptides embedded in the polypeptide,[1]; [8],12
same,Immunogenicity in HLA-A2/DR1 transgenic mice (conclusion),[2],marginal immune responses
same,Peptides above the threshold (T cell responses against individual peptides),[2],UV 57
same,Peptide recognition by individual vaccinated mice (ELISpot),[2],M9 and 12 did not respond to any of the tested peptides; also recorded: M11 demonstrated a marginal immune response against UV57
same,Vaccinated individuals with induced immune responses,vaccinated individuals,at least 50%
AERLTSRVKALFSVL [p728],Patients with immune response against the peptide / UV1 mix,[3],24%
same,Number of patients that recognised this one peptide only,[3],one
same,Responding patients / evaluable patients,[3],(12/51)
LLGASVLGLDDIHR (listed as Homo sapiens) [SEQ ID NO: 27],"HLA Class II allele, T-cell clone recognising the peptide",[4],"DQ2, clone 52"
LSEAEVRQHREARPALLTSRLRFIPKPDGL [SEQ ID NO: 116],Total of positive patients over peptides sharing at least 8 amino acids with the polypeptide,[1],Total = 20
same,SUM of T-cell responses to peptides embedded in the polypeptide,[1]; Vaccination DC (n = 3),8
same,SUM of T-cell responses to peptides embedded in the polypeptide,[1]; Vaccination GV1001 (n = 4),12
same,SUM of T-cell responses to peptides embedded in the polypeptide,[1]; [8],20
same,Immunogenicity in HLA-A2/DR1 transgenic mice (conclusion),[2],highly immunogenic
same,Peptides above the threshold (T cell responses against individual peptides),[2],"UV36, UV57, UV58, UV59, UV60, UV64 and UV66"
same,Peptide recognition by individual vaccinated mice (ELISpot),[2],"Mouse M16 displayed marginal immune responses against UV57; also recorded: Mouse M15 responded somewhat more broadly and recognized UV58; also recorded: Cells from this mouse also responded to UV59; also recorded: Peptide UV60 was also recognized; also recorded: They both recognized UV36, UV57, UV58, UV64 and UV66; also recorded: also recognized UV59 and UV60"
same,Anti-MTTE antibody titers at the end of the experiment,[5],not able to mount an antibody response to the MTTE sequence
PQDRLTEVIASIIKP [Conjugate 723],No. of positive patients,[1],1
same,"T-cell responses to the individual peptide (patients), counted for SEQ ID NO: 118",[1]; Vaccination DC (n = 3),1
same,"T-cell responses to the individual peptide (patients), counted for SEQ ID NO: 118",[1]; [8],1
LYFVKVDVTGAYDTI [Conjugate 727],No. of positive patients,[1],5
same,"T-cell responses to the individual peptide (patients), counted for SEQ ID NO: 118",[1]; Vaccination DC (n = 3),2
same,"T-cell responses to the individual peptide (patients), counted for SEQ ID NO: 118",[1]; Vaccination GV1001 (n = 4),3
same,"T-cell responses to the individual peptide (patients), counted for SEQ ID NO: 118",[1]; [8],5
YERARRPGLLGASV (listed as Homo sapiens) [SEQ ID NO: 19],"HLA Class II allele, T-cell clone recognising the peptide",[4],"DQ7, clone 8"
FIPKPDGLRPIVNMD [Conjugate 715],No. of positive patients,[1],3
same,"T-cell responses to the individual peptide (patients), counted for SEQ ID NO: 116",[1]; Vaccination DC (n = 3),2
same,"T-cell responses to the individual peptide (patients), counted for SEQ ID NO: 116",[1]; Vaccination GV1001 (n = 4),1
same,"T-cell responses to the individual peptide (patients), counted for SEQ ID NO: 116",[1]; [8],3
SVLNYERARRPGLL (listed as Homo sapiens) [SEQ ID NO: 15],"HLA Class II allele, T-cell clone recognising the peptide",[4],"DR7, clone 4, 12, 21, 15, 92,; also recorded: p5-clone109"
LESVLNYERARRPG (LFSVLNYERARRPG; listed as Homo sapiens) [SEQ ID NO: 13],"HLA Class II allele, T-cell clone recognising the peptide",[4],p5-clone109
ERARRPGLLGASVL (listed as Homo sapiens) [SEQ ID NO: 20],"HLA Class II allele, T-cell clone recognising the peptide",[4],"DQ7, clone 8,10"
ELYFVKVDVEGAYDT [Conjugate 726],No. of positive patients,[1],2
same,"T-cell responses to the individual peptide (patients), counted for SEQ ID NO: 118",[1]; Vaccination DC (n = 3),1
same,"T-cell responses to the individual peptide (patients), counted for SEQ ID NO: 118",[1]; Vaccination GV1001 (n = 4),1
same,"T-cell responses to the individual peptide (patients), counted for SEQ ID NO: 118",[1]; [8],2
VLNYERARRPGLIG (VLNYERARRPGLLG; listed as Homo sapiens) [SEQ ID NO: 16],"HLA Class II allele, T-cell clone recognising the peptide",[4],"DR7, clone 15, p5-clone109"
ALFSVLNYERARRPGLLGASVLGLDDIHRA [p719-20],Patients with immune response against the peptide / UV1 mix,[3],65%
same,Patients with immune response against the peptide / UV1 mix,[3]; listed as SEQ ID NO. 1,65%
same,Percentage of patients carrying the allele who responded to SEQ ID NO. 1,[3]; HLA-DPB1*01:01,14%
same,Percentage of patients carrying the allele who responded to SEQ ID NO. 1,[3]; HLA-DPB1*04:01,64%
same,Percentage of patients carrying the allele who responded to SEQ ID NO. 1,[3]; HLA-DPB1*04:02,71%
same,Percentage of patients carrying the allele who responded to SEQ ID NO. 1,[3]; HLA-DQB1*03:02,46%
same,Percentage of patients carrying the allele who responded to SEQ ID NO. 1,[3]; HLA-DQB1*05:01,67%
same,Percentage of patients carrying the allele who responded to SEQ ID NO. 1,[3]; HLA-DQB1*06:02,72%
same,Percentage of patients carrying the allele who responded to SEQ ID NO. 1,[3]; HLA-DRB1*04:01,50%
same,Percentage of patients carrying the allele who responded to SEQ ID NO. 1,[3]; HLA-DRB1*07:01,90%
same,Percentage of patients carrying the allele who responded to SEQ ID NO. 1,[3]; HLA-DRB1*15:01,89%
same,Responders in 7 of the 9 most common HLA class II haplotypes,[3]; UV1-vaccinated patients,> 50%
same,Number of patients that recognised this one peptide only,[3],13
same,Responding patients / evaluable patients,[3],(33/51)
same,"HLA Class II allele, T-cell clone recognising the peptide",[4],All clones
same,Responding mice,[6]; 22 nmol dose,all mice appear to respond
same,IFN-γ ELISpot spots on restimulation with SEQ ID NO: 1,"[6]; 30 μg (9 nmol) with CpG 1826 25 μg in IFA, prime boost, n=8",significant increase in the number of spots compared to cells alone
same,GFP-expressing T-cells specific for SEQ ID NO: 1 (T-cell activation),[7],activate the T cells equally well
RARRPGLLGASVLG (listed as Homo sapiens) [SEQ ID NO: 21],"HLA Class II allele, T-cell clone recognising the peptide",[4],"DQ7, clone 8,10"
PGLLGASVLGLDDI (listed as Homo sapiens) [SEQ ID NO: 25],"HLA Class II allele, T-cell clone recognising the peptide",[4],"DQ2, clone 52"
VTGAYDTIPQDRLTE [Conjugate 732],No. of positive patients,[1],1
same,"T-cell responses to the individual peptide (patients), counted for SEQ ID NO: 118",[1]; Vaccination GV1001 (n = 4),1
same,"T-cell responses to the individual peptide (patients), counted for SEQ ID NO: 118",[1]; [8],1
RPALLTSRLRFIPKP [Conjugate 714],No. of positive patients,[1],7
same,"T-cell responses to the individual peptide (patients), counted for GV1001",[1]; Vaccination DC (n = 3),3
same,"T-cell responses to the individual peptide (patients), counted for SEQ ID NO: 116",[1]; Vaccination DC (n = 3),3
same,"T-cell responses to the individual peptide (patients), counted for GV1001",[1]; Vaccination GV1001 (n = 4),4
same,"T-cell responses to the individual peptide (patients), counted for SEQ ID NO: 116",[1]; Vaccination GV1001 (n = 4),4
same,"T-cell responses to the individual peptide (patients), counted for GV1001",[1]; [8],7
same,"T-cell responses to the individual peptide (patients), counted for SEQ ID NO: 116",[1]; [8],7
LYFVKVDVTGAYDTIPQDRLTRVIASIIKP (listed as Homo sapiens) [SEQ ID NO: 118],Total of positive patients over peptides sharing at least 8 amino acids with the polypeptide,[1],Total = 9
same,SUM of T-cell responses to peptides embedded in the polypeptide,[1]; Vaccination DC (n = 3),4
same,SUM of T-cell responses to peptides embedded in the polypeptide,[1]; Vaccination GV1001 (n = 4),5
same,SUM of T-cell responses to peptides embedded in the polypeptide,[1]; [8],9
NYERARRPGLLGAS (listed as Homo sapiens) [SEQ ID NO: 18],"HLA Class II allele, T-cell clone recognising the peptide",[4],"p5-clone 109; also recorded: DQ7, clone 8"
EAEVRQHREARPALL [Conjugate 713],No. of positive patients,[1],4
same,"T-cell responses to the individual peptide (patients), counted for SEQ ID NO: 116",[1]; Vaccination DC (n = 3),1
same,"T-cell responses to the individual peptide (patients), counted for SEQ ID NO: 116",[1]; Vaccination GV1001 (n = 4),3
same,"T-cell responses to the individual peptide (patients), counted for SEQ ID NO: 116",[1]; [8],4
TSRLRFIPKPDGLRP [Conjugate 730],No. of positive patients,[1],5
same,"T-cell responses to the individual peptide (patients), counted for GV1001",[1]; Vaccination DC (n = 3),2
same,"T-cell responses to the individual peptide (patients), counted for SEQ ID NO: 116",[1]; Vaccination DC (n = 3),2
same,"T-cell responses to the individual peptide (patients), counted for GV1001",[1]; Vaccination GV1001 (n = 4),3
same,"T-cell responses to the individual peptide (patients), counted for SEQ ID NO: 116",[1]; Vaccination GV1001 (n = 4),3
same,"T-cell responses to the individual peptide (patients), counted for GV1001",[1]; [8],5
same,"T-cell responses to the individual peptide (patients), counted for SEQ ID NO: 116",[1]; [8],5
ARRPGLLGASVLGL (listed as Homo sapiens) [SEQ ID NO: 22],"HLA Class II allele, T-cell clone recognising the peptide",[4],"DQ7, clone 8,10"
GLLGASVLGLDDIH (listed as Homo sapiens) [SEQ ID NO: 26],"HLA Class II allele, T-cell clone recognising the peptide",[4],"DQ2, clone 52"
ALFSVLNYERARRP (listed as Homo sapiens) [SEQ ID NO: 12],"HLA Class II allele, T-cell clone recognising the peptide",[4],"DR12, clone 44, 38, 6"
LNYERARRPGLLGD (LNYERARRPGLLGA; listed as Homo sapiens) [SEQ ID NO: 17],"HLA Class II allele, T-cell clone recognising the peptide",[4],p5-clone109
ARWWWMHHNMDLIGGAKxVAAWTLKAu [HY-PADRE],Anti-MTTE IgG1 antibody titres (ELISA),C57BL/6 mice,no antibodies to the MTTE sequence
FSVLNYERARRPGL (listed as Homo sapiens) [SEQ ID NO: 14],"HLA Class II allele, T-cell clone recognising the peptide",[4],p5-clone 109
RTFVLRVRAQDPPPE [p725],Patients with immune response against the peptide / UV1 mix,[3],39%
same,Number of patients that recognised this one peptide only,[3],one
same,Responding patients / evaluable patients,[3],(20/51)
RRPGLLGASVLGLD (listed as Homo sapiens) [SEQ ID NO: 23],"HLA Class II allele, T-cell clone recognising the peptide",[4],"DQ7, clone 8,10"
